Patent US20240384350A1, “METHODS OF TREATING CANCER WITH KINASE INHIBITORS” (BOARD OF REGENTS, THE UNIVERSITY OF TEXAS SYSTEM, priority 2021, published 2024)

Tests used:
Test in all cases: Ba/F3 drug screening, Cell Titer Glo, IC50 Mut/WT
Type in all cases: cell-based
EGFR L858R L718Q = target: T1, EGFR L858R L718Q (Homo sapiens, UniProt P00533, L718Q/L858R); details: Ba/F3 cells, EGFR L858R L718Q (PACC), Mut/WT
T1 construct: host or cells: Ba/F3

EGFR L718V = target: T2, EGFR L718V (Homo sapiens, UniProt P00533, L718V); details: Ba/F3 cells, EGFR L718V (PACC), Mut/WT
T2 construct: expressed in transfected cells; host or cells: Ba/F3
Experimental: (§1) Data represent the ratio of the IC50 value for a given TKI for cells with a PACC EGFR mutation to the IC50 value for cells with wildtype EGFR.
(§2) Ba/F3 cell generation, drug screening, and IC50 approximations. Ba/F3 cells were obtained as a gift from Dr. Gordon Mills (MD Anderson Cancer Center), and maintained in RPMI (Sigma) containing 10% FBS, 1% penicillin/streptomycin, and 10 ng/ml recombinant mIL-3 (R&D Biosystems). To establish stable Ba/F3 cell lines, Ba/F3 cells were transduced with retroviruses containing mutant EGFR plasmids for 12-24 hours.
(§3) After 48-72 hours of transduction, 2 μg/ml puromycin (Invitrogen) was added to Ba/F3 cell lines in complete RPMI. To select for EGFR positive cell lines, cells were stained with PE-EGFR (Biolegend) and sorted by FACS. After sorting, EGFR positive cells were maintained in RPMI containing 10% FBS, 1% penicillin/streptomycin, and 1 ng/ml EGF to support cell viability. Drug screening was performed as previously described^41,42. Shortly, cells were plated in 384-well plates (Greiner Bio-One) at 2000-3000 cells per well in technical triplicate. Seven different concentrations of TKIs or DMSO vehicle were added to reach a final volume of 40 μL per well. After 72 hours, 11 μL of Cell Titer Glo (Promega) was added to each well. Plates were incubated for a minimum of 10 minutes, and bioluminescence was determined using a FLUOstar OPTIMA plate reader (BMG LABTECH). Raw bioluminescence values were normalized to DMSO control treated cells, and values were plotted in GraphPad Prism. […] Drug screens were performed in technical triplicate on each plate and either duplicate or triplicate biological replicates.

EGFR A763insFQEA = target: T3, EGFR A763insFQEA (Homo sapiens, UniProt P00533, INS763FQEA); details: Classical-Like, 72 hours
T3 construct: expressed in transfected cells; host or cells: Ba/F3 cells, retroviral pBabe-Puro vector
Experimental: (§4) Data represent the ratio of the IC50 value for a given TKI for cells with a classical-like EGFR mutation to the IC50 value for cells with wildtype EGFR.
as §2
(§5) After 48-72 hours of transduction, 2 μg/ml puromycin (Invitrogen) was added to Ba/F3 cell lines in complete RPMI. To select for EGFR positive cell lines, cells were stained with PE-EGFR (Biolegend) and sorted by FACS. After sorting, EGFR positive cells were maintained in RPMI containing 10% FBS, 1% penicillin/streptomycin, and 1 ng/ml EGF to support cell viability. […] Shortly, cells were plated in 384-well plates (Greiner Bio-One) at 2000-3000 cells per well in technical triplicate. Seven different concentrations of TKIs or DMSO vehicle were added to reach a final volume of 40 μL per well. After 72 hours, 11 μL of Cell Titer Glo (Promega) was added to each well. Plates were incubated for a minimum of 10 minutes, and bioluminescence was determined using a FLUOstar OPTIMA plate reader (BMG LABTECH). Raw bioluminescence values were normalized to DMSO control treated cells, and values were plotted in GraphPad Prism. […] Drug screens were performed in technical triplicate on each plate and either duplicate or triplicate biological replicates.

EGFR K757R = target: T4, EGFR K757R (Homo sapiens, UniProt P00533, K757R); details: Ba/F3 cells, EGFR K757R (PACC), Mut/WT
T4 construct: expressed in transfected cells; host or cells: Ba/F3
Experimental: as §1, §2
(§6) After 48-72 hours of transduction, 2 μg/ml puromycin (Invitrogen) was added to Ba/F3 cell lines in complete RPMI. To select for EGFR positive cell lines, cells were stained with PE-EGFR (Biolegend) and sorted by FACS. After sorting, EGFR positive cells were maintained in RPMI containing 10% FBS, 1% penicillin/streptomycin, and 1 ng/ml EGF to support cell viability. Drug screening was performed as previously described^41,42. Shortly, cells were plated in 384-well plates (Greiner Bio-One) at 2000-3000 cells per well in technical triplicate. Seven different concentrations of TKIs or DMSO vehicle were added to reach a final volume of 40 μL per well. After 72 hours, 11 μL of Cell Titer Glo (Promega) was added to each well. Plates were incubated for a minimum of 10 minutes, and bioluminescence was determined using a FLUOstar OPTIMA plate reader (BMG LABTECH). Raw bioluminescence values were normalized to DMSO control treated cells, and values were plotted in GraphPad Prism. […] Drug screens were performed in technical triplicate on each plate and either duplicate or triplicate biological replicates. […] Statistical differences between groups were determined by ANOVA as described in the figure legends.

EGFR Ex19del/T790M/G724S = target: T5, EGFR Ex19del/T790M/G724S (Homo sapiens, UniProt P00533, DEL746-750/G724S/T790M); details: T790M-like-3S, 72 hours
T5 construct: expressed in transfected cells; host or cells: Ba/F3
Experimental: (§7) Data represent the ratio of the IC50 value for a given TKI for cells with a T790M-like-3S EGFR mutation to the IC50 value for cells with wildtype EGFR.
as §2, §3

EGFR A763insLQEA = target: T6, EGFR A763insLQEA (Homo sapiens, UniProt P00533, INS763LQEA); details: Classical-Like, 72 hours
T6 construct: expressed in transfected cells; host or cells: Ba/F3 cells, retroviral pBabe-Puro vector
Experimental: as §4, §2, §5

EGFR L858R S784F = target: T7, EGFR L858R S784F (Homo sapiens, UniProt P00533, L858R/S784F); details: Classical-Like, 72 hours
T7 construct: expressed in transfected cells; host or cells: Ba/F3 cells, retroviral pBabe-Puro vector (vector made by GeneScript from EGFR L858R)

EGFR L833F = target: T8, EGFR L833F (Homo sapiens, UniProt P00533, L833F); details: Classical-Like, 72 hours
T8 construct: expressed in transfected cells; host or cells: Ba/F3 cells, retroviral pBabe-Puro vector
Experimental: as §4, §2, §5

EGFR L718Q = target: T9, EGFR L718Q (Homo sapiens, UniProt P00533, L718Q); details: Ba/F3 cells, EGFR L718Q (PACC), Mut/WT
T9 construct: expressed in transfected cells; host or cells: Ba/F3
Experimental: as §1, §2, §3

EGFR E709K L858R = target: T10, EGFR E709K L858R (Homo sapiens, UniProt P00533, E709K/L858R); details: Classical-Like, 72 hours
T10 construct: expressed in transfected cells; host or cells: Ba/F3 cells, retroviral pBabe-Puro vector

EGFR L747P = target: T11, EGFR L747P (Homo sapiens, UniProt P00533, L747P); details: Ba/F3 cells, EGFR L747P (PACC), Mut/WT
T11 construct: expressed in transfected cells; host or cells: Ba/F3
Experimental: as §1, §2, §6

EGFR D770insNPG = target: T12, EGFR D770insNPG (Homo sapiens, UniProt P00533, INS770NPG); details: Ex20, 72 hours
T12 construct: expressed in transfected cells; host or cells: Ba/F3 cells, retroviral pBabe-Puro vector

EGFR L858R/T790M = target: T13, EGFR L858R/T790M (Homo sapiens, UniProt P00533, L858R/T790M); details: T790M-like-3S, 72 hours
T13 construct: expressed in transfected cells; host or cells: Ba/F3
Experimental: as §7, §2, §3

EGFR S768dupSVD V769M = target: T14, EGFR S768dupSVD V769M (Homo sapiens, UniProt P00533, INS768MDS/V769M); details: Ex20, 72 hours
T14 construct: expressed in transfected cells; host or cells: Ba/F3 cells, retroviral pBabe-Puro vector (vector made by GeneScript from EGFR S768dupSVD, c.2305G > A)
Experimental: (§8) Data represent the ratio of the IC50 value for a given TKI for cells with an ex20ins EGFR mutation to the IC50 value for cells with wildtype EGFR.
as §2, §6

EGFR N771dupN = target: T15, EGFR N771dupN (Homo sapiens, UniProt P00533, DUP771-771); details: Ex20, 72 hours
T15 construct: expressed in transfected cells; host or cells: Ba/F3 cells, retroviral pBabe-Puro vector
Experimental: as §8, §2, §6

EGFR S768I V774M = target: T16, EGFR S768I V774M (Homo sapiens, UniProt P00533, S768I/V774M); details: Ba/F3 cells, EGFR S768I V774M (PACC), Mut/WT
T16 construct: host or cells: Ba/F3
Experimental: as §1, §2, §3

EGFR L858R/V834L = target: T17, EGFR L858R/V834L (Homo sapiens, UniProt P00533, L858R/V834L); details: Classical-Like, 72 hours
T17 construct: expressed in transfected cells; host or cells: Ba/F3 cells, retroviral pBabe-Puro vector
Experimental: as §4, §2, §5

EGFR L858R/T790M/C797S = target: T18, EGFR L858R/T790M/C797S (Homo sapiens, UniProt P00533, C797S/L858R/T790M); details: T790M-like-3R, 72 hours
T18 construct: expressed in transfected cells; host or cells: Ba/F3

EGFR Ex19del T790M L718V = target: T19, EGFR Ex19del T790M L718V (Homo sapiens, UniProt P00533, DEL746-750/L718V/T790M); details: T790M-like-3S, 72 hours
T19 construct: expressed in transfected cells; host or cells: Ba/F3
Experimental: as §7, §2, §3

EGFR S811F = target: T20, EGFR S811F (Homo sapiens, UniProt P00533, S811F); details: Classical-Like, 72 hours
T20 construct: expressed in transfected cells; host or cells: Ba/F3 cells, retroviral pBabe-Puro vector (vector made by GeneScript from EGFR WT)
Experimental: as §4, §2, §5

EGFR L861R = target: T21, EGFR L861R (Homo sapiens, UniProt P00533, L861R); details: Classical-Like, 72 hours
T21 construct: expressed in transfected cells; host or cells: Ba/F3 cells, retroviral pBabe-Puro vector (vector made by GeneScript from EGFR WT)
Experimental: as §4, §2, §5

EGFR L861Q = target: T22, EGFR L861Q (Homo sapiens, UniProt P00533, L861Q); details: Classical-Like, 72 hours
T22 construct: expressed in transfected cells; host or cells: Ba/F3 cells, retroviral pBabe-Puro vector
Experimental: as §4, §2, §5

EGFR L858R T790M L792H = target: T23, EGFR L858R T790M L792H (Homo sapiens, UniProt P00533, L792H/L858R/T790M); details: T790M-like-3S, 72 hours
T23 construct: expressed in transfected cells; host or cells: Ba/F3
Experimental: as §7, §2, §3

EGFR D761N = target: T24, EGFR D761N (Homo sapiens, UniProt P00533, D761N); details: Classical-Like, 72 hours
T24 construct: expressed in transfected cells; host or cells: Ba/F3 cells, retroviral pBabe-Puro vector
Experimental: as §4, §2, §5

| SMILES | ratio of the IC50 value for cells with a PACC EGFR mutation to the IC50 value for cells with wildtype EGFR (EGFR L858R L718Q) | ratio of the IC50 value for cells with a PACC EGFR mutation to the IC50 value for cells with wildtype EGFR (EGFR L718V) | ratio of IC50 for cells with mutant EGFR to IC50 for cells with wildtype EGFR (Mut/WT) (EGFR A763insFQEA) | ratio of the IC50 value for cells with a PACC EGFR mutation to the IC50 value for cells with wildtype EGFR (EGFR K757R) | ratio of IC50 for cells with mutant EGFR to IC50 for cells with wildtype EGFR (Mut/WT) (EGFR Ex19del/T790M/G724S) | ratio of IC50 for cells with mutant EGFR to IC50 for cells with wildtype EGFR (Mut/WT) (EGFR A763insLQEA) | ratio of IC50 for cells with mutant EGFR to IC50 for cells with wildtype EGFR (Mut/WT) (EGFR L858R S784F) | ratio of IC50 for cells with mutant EGFR to IC50 for cells with wildtype EGFR (Mut/WT) (EGFR L833F) | ratio of the IC50 value for cells with a PACC EGFR mutation to the IC50 value for cells with wildtype EGFR (EGFR L718Q) | ratio of IC50 for cells with mutant EGFR to IC50 for cells with wildtype EGFR (Mut/WT) (EGFR E709K L858R) | ratio of the IC50 value for cells with a PACC EGFR mutation to the IC50 value for cells with wildtype EGFR (EGFR L747P) | ratio of IC50 for cells with mutant EGFR to IC50 for cells with wildtype EGFR (Mut/WT) (EGFR D770insNPG) | ratio of IC50 for cells with mutant EGFR to IC50 for cells with wildtype EGFR (Mut/WT) (EGFR L858R/T790M) | ratio of IC50 for cells with mutant EGFR to IC50 for cells with wildtype EGFR (Mut/WT) (EGFR S768dupSVD V769M) | ratio of IC50 for cells with mutant EGFR to IC50 for cells with wildtype EGFR (Mut/WT) (EGFR N771dupN) | ratio of the IC50 value for cells with a PACC EGFR mutation to the IC50 value for cells with wildtype EGFR (EGFR S768I V774M) | ratio of IC50 for cells with mutant EGFR to IC50 for cells with wildtype EGFR (Mut/WT) (EGFR L858R/V834L) | ratio of IC50 for cells with mutant EGFR to IC50 for cells with wildtype EGFR (Mut/WT) (EGFR L858R/T790M/C797S) | ratio of IC50 for cells with mutant EGFR to IC50 for cells with wildtype EGFR (Mut/WT) (EGFR Ex19del T790M L718V) | ratio of IC50 for cells with mutant EGFR to IC50 for cells with wildtype EGFR (Mut/WT) (EGFR S811F) | other results |
| --- | --- | --- | --- | --- | --- | --- | --- | --- | --- | --- | --- | --- | --- | --- | --- | --- | --- | --- | --- | --- | --- |
| C=CC(=O)Nc1cc(Nc2ncc(C(=O)OC(C)C)c(-c3cn(C)c4ccccc34)n2)c(OC)cc1N(C)CCN(C)C [TAK-788 (mobocertinib), mobocertinib] | 2.996 | 39.29 | 0.473 | 1.563 | 3.12 | 0.03374 | 0.001484 | 1.233 | 16.38 | 0.008356 | 5.991 | 1.211 | 0.7565 | 0.5446 | 0.8508 | 1.227 | 0.006056 | 134.7 | 3.032 | 0.003195 | ratio of IC50 for cells with mutant EGFR to IC50 for cells with wildtype EGFR (Mut/WT) (EGFR L861R): 0.3102; ratio of IC50 for cells with mutant EGFR to IC50 for cells with wildtype EGFR (Mut/WT) (EGFR L861Q): 0.8467; ratio of IC50 for cells with mutant EGFR to IC50 for cells with wildtype EGFR (Mut/WT) (EGFR L858R T790M L792H): 3.326; ratio of IC50 for cells with mutant EGFR to IC50 for cells with wildtype EGFR (Mut/WT) (EGFR D761N): 0.363 |
| C=CC(=O)Nc1cccc(Oc2nc(Nc3ccc(N4CCN(C)CC4)cc3)nc3ccsc23)c1 [Olmutinib] | 2.324 | 0.139 | 0.02753 | 0.1439 | 0.005075 | 0.07483 | 0.04569 | 0.1289 | 3.977 | 0.01609 | 0.3924 | 0.31 | 0.0007936 | 0.5379 | 0.4208 | 0.1109 | 0.006716 | 4.111 | 0.02165 | 0.0307 | ratio of IC50 for cells with mutant EGFR to IC50 for cells with wildtype EGFR (Mut/WT) (EGFR L861R): 0.02937; ratio of IC50 for cells with mutant EGFR to IC50 for cells with wildtype EGFR (Mut/WT) (EGFR L861Q): 0.05048; ratio of IC50 for cells with mutant EGFR to IC50 for cells with wildtype EGFR (Mut/WT) (EGFR L858R T790M L792H): 0.004757; ratio of IC50 for cells with mutant EGFR to IC50 for cells with wildtype EGFR (Mut/WT) (EGFR D761N): 0.1654 |
| C=CC(=O)Nc1cc(Nc2nccc(-c3c[nH]c4ccccc34)n2)c(OC)cc1N(C)CCN(C)C [AZ5104] | 1.635 | 2.622 | 0.3966 | 0.1894 | 1.673 | 0.03029 | 0.0429 | 0.7284 | 11.32 | 0.1151 | 3.59 | 1.976 | 0.1777 | 0.3864 | 0.6044 | 0.5809 | 0.4038 | 78.11 | 0.7041 | 0.002871 | ratio of IC50 for cells with mutant EGFR to IC50 for cells with wildtype EGFR (Mut/WT) (EGFR L861R): 0.2335; ratio of IC50 for cells with mutant EGFR to IC50 for cells with wildtype EGFR (Mut/WT) (EGFR L861Q): 0.5871; ratio of IC50 for cells with mutant EGFR to IC50 for cells with wildtype EGFR (Mut/WT) (EGFR L858R T790M L792H): 0.5871; ratio of IC50 for cells with mutant EGFR to IC50 for cells with wildtype EGFR (Mut/WT) (EGFR D761N): 0.3285 |
